Measured values from patent US10336689B1, “Gossypol eflornithine Schiff base compound with antitumor activities and a method of preparing the same” (SHAANXI UNIVERSITY OF SCIENCE AND TECHNOLOGY, priority 2019, dated 2019).
Read-outs that look alike come from different tables or passages of the source.

Columns and labels:
Format in all cases: cell-based
[1] = test system: human gastric cancer cells (SGC-7901); assay: MTT tumor cell proliferation inhibition test, SGC-7901; conditions: for IC50: Homo sapiens, read-out: Half Inhibitory Concentration IC50, SGC-7901
Description: (§1) The gossypol eflornithine Schiff base compound was subjected to tumor cell proliferation inhibition test, and conventional MTT method was used.
(§2) Cell lines: human hepatoma cells (HepG2), human lung cancer cells (A-549), human gastric cancer cells (SGC-7901). The culture medium was DMEM+15% NBS+double antibody.
(§3) Sample solution preparation: after dissolving with DMSO (Merck), PBS (−) was added to obtain 100 μmol/L solution or homogeneous suspension. The solution was diluted with PBS (−) in DMSO to a final concentration of 0.1, 1, 10, 20, 40, 60, 80, 100 μmol/L.
(§4) Gossypol and eflornithine used as control solution, prepared under the same condition.
(§5) Cell culture: adherent growth Tumor cells were cultured in 1640 medium containing 10% inactivated neonatal bovine serum and penicillin, streptomycin (1 million U/L), placed in carbon dioxide incubator at 37° C., 5% CO2, and saturated humidity. Cells were treated serially passaged 2-3 times. The first culture was washed with PBS 2 times, and digested with trypsin. Fresh culture medium was added evenly, cells were adjusted to an appropriate concentration and transferred into a new culture flask. Cell in an exponential phase were chosen for the tests.
MTT Assay for Cell Viability and IC50 Determination:
(§6) Experimental Principle: Living cells mitochondria in the dehydrogenase can reduce yellow MTT to water-insoluble blue-violet product MT (MTT formazan), deposited in the cells. The amount of production is proportional to the number of living cells. […] DMSO can dissolve blue violet crystals, and the color depth is proportional to the amount contained, so the absorbance measured by the microplate reader can reflect the cell viability.
(§7) Methods: The exponential phase cells were digested and counted and seeded in 96-well plates at a density of 2×10^4/mL at 100 μl per well. After 24 hours of incubation, the cells to be tested were treated with 0.1, 1, 10, 20, 40, 60, 80, 100 μmol/L of the compounds. Each experimental group had 5 wells in each concentration, and the culture medium containing 0.4% DMSO was used as control. After 48 hours, the supernatant was discarded, and 100 μl of MTT ((2-(4,5-dimethyl-2-thiazolyl)-3,5-diphenyl-2H-[…]) (1 mg/mL) was added to each well. After another 4 hours, the supernatant was discarded, and 100 μl of DMSO was added to each well. After mixing, the absorbance was measured at 570 nm using a microplate reader. An IC50 calculation software was used to determine the half inhibitory concentration (IC50).

[2] = test system: human hepatoma cells (HepG2); assay: MTT tumor cell proliferation inhibition test, HepG2; conditions: read-out: Half Inhibitory Concentration IC50, HepG2
Description: as §1, §2, §3, §4
as §5, with “Cell in an exponential phase were chosen for the tests.” left out
as §6, with “the” for “the cells. The amount of production is proportional to the number of living”
as §7, with “After 24 hours of incubation, the cells to be tested were treated with 0.1, 1, 10, 20, 40, 60, 80, 100 μmol/L of the compounds. Each experimental group had 5 wells in each concentration, and the culture medium containing 0.4% DMSO was used as control.” left out

[3] = test system: human lung cancer cells (A-549); assay: MTT tumor cell proliferation inhibition test, A-549; conditions: read-out: Half Inhibitory Concentration IC50, A549
Description: as §1, §2, §3, §4
as §5, with “Cell in an exponential phase were chosen for the tests.” left out
as §6, with “the” for “the cells. The amount of production is proportional to the number of living”
as §7, with “After 24 hours of incubation, the cells to be tested were treated with 0.1, 1, 10, 20, 40, 60, 80, 100 μmol/L of the compounds. Each experimental group had 5 wells in each concentration, and the culture medium containing 0.4% DMSO was used as control.” left out

[4] = SGC-7901 cells, MTT, 48 hours treatment
[5] = HepG2 cells, MTT, 48 hours treatment
[6] = A549 cells, MTT, 48 hours treatment

| Structure (SMILES) | IC50 [1, 4] | antitumor activity against SGC-7901 cell lines compared with gossypol ([1]; SGC-7901 cells, MTT, comparison with gossypol) | IC50 [2, 5] | IC50 [3, 6] | IC50 ([1]; SGC-7901, 48 h) | IC50 ([2]; HepG2, 48 h) | IC50 ([3]; A549, 48 h) |
| --- | --- | --- | --- | --- | --- | --- | --- |
| Cc1cc2c(C(C)C)c(O)c(O)c(/C=N\CCCC(N)(C(=O)O)C(F)F)c2c(O)c1-c1c(C)cc2c(C(C)C)c(O)c(O)c(/C=N\CCCC(N)(C(=O)O)C(F)F)c2c1O (stereo not shown) [gossypol eflornithine Schiff base compound] | 11.1 ± 0.34 µM | better antitumor activity against SGC-7901 cell lines than gossypol | 20.1 ± 0.57 µM | 11.6 ± 0.2 µM |  |  |  |
| Cc1cc2c(C(C)C)c(O)c(O)c(C=O)c2c(O)c1-c1c(C)cc2c(C(C)C)c(O)c(O)c(C=O)c2c1O [Gossypol] |  |  |  |  | 19.8 ± 0.66 µM | 9.55 ± 0.41 µM | 13 ± 0.32 µM |
| NCCCC(N)(C(=O)O)C(F)F (stereo not shown) [Eflornithine] | > 100 µM |  | > 100 µM | > 100 µM |  |  |  |
